Data set [1] can be described thus: enantioselective degradation of paclobutrazol in rat liver microsomes (Wu et al.). The format is in vitro ADME. The settings on record: reconstructed from data of Fig. 3A in ref 19; R^2 0.97. As to the method: (§1) In addition to the microsome studies, the Rayleigh equation was fitted to reported studies on biodegradation of chiral compounds using liver microsomes and hepatocytes for which there was sufficient data available. We focused on studies published on years 2011–2015 that reported on first order kinetics and/or provided concentration - time profiles of the individual enantiomers after incubation of the racemate with the metabolizer, i.e. systems analyzed by approach II in the introduction.

Data set [2] is described as follows: de-methylation (enantioselective degradation) by Wistar Han rat liver microsomes. In kind it is in vitro ADME. Conditions: RLM-W, racemate, 37 °C, 0–120 min. As to the method:
(§2) The reactions were initiated by the addition of 120 μl NADPH-regenerating system (100 μL of solution A and 20 μL of solution B) that were added after a 3-min pre-incubation of the incubation mixtures containing 10 μl of substrate (1 g/L), 50 μl human/rat hepatic microsomes (20 mg protein/ml) and […] sodium phosphate buffer, 0.1 M pH 7.4 final volume was 500 μl. The reactions were stopped at time intervals by cooling on ice and addition of 100 μl acetonitrile followed by the addition of 20 μL internal standards stock solution (0.1 g/L). After termination of the reaction 200 microliter sodium carbonate solution (1 M, pH 12) was added and samples were then vigorously shaken for 1 min and consequently extracted into 6 ml n-hexane/acetonitrile (98/2 vol/vol) using an Intelli mixer on 50 rpm for 5 min. after centrifugation for 10 min (6,000 rpm) the upper organic layer was collected and the procedure was repeated. The samples were eventually evaporated till dry under a gentle stream of nitrogen. The residue was dissolved in 200 microliter methanol and analyzed by HPLC-MS. These degradation studies were done in duplicates.
(§3) Control assays were run under the same conditions, with 200 μL insect control supersomes (5 mg protein/ml) used as a negative control, i.e containing no CYP450 but the same protein content (cytochrome b5), while 10 μl of Verapamil (1 g/L) and 50 μl human microsomes (20 mg protein/ml) was incubated for 30 min as a positive control.
(§4) The chiral separation method was based on methodology of Begnall et al.[62]. […] For all separations the column and autosampler were maintained at 25 °C, with an optimal chromatographic run time of 24 minutes, the injection volume was 10 μL. QTOF mass spectrometer equipped with an electrospray ionization source (Agilent G3251A Dual ESI) was used for chiral drug identification and quantification. Analysis was performed in positive mode with a capillary voltage potential of 4000 V; the nebulizer gas pressure was set to 40 psi and drying gas flow was 10 L/min, with a drying gas temperature of 300 °C. The fragmentor voltage was set at 140 V, and skimmer voltage was 65 V. Scan range was 50–1000 m/z, the other MS parameters remained at auto-tune conditions.
(§5) The enantiomeric ratios were expressed as the ER – the peak area of one enantiomer (the more abundant) divided by that of the other enantiomer.
On the technique in general: Liver microsomes are a subcellular fraction often used to study metabolism.

The nature of data set [3]: de-methylation (enantioselective degradation) by human liver microsomes. The settings on record: HLM, racemate, 37 °C, 0–120 min. As to the method:
as §2, §3, §4, §5

Data set [4] is described as follows: de-methylation (enantioselective degradation) by Lewis rat liver microsomes. The format is in vitro ADME. The settings on record: RLM-L, racemate, 37 °C, 0–120 min. As to the method:
as §2, §3, §4, §5

Data set [5] in a line: de-methylation (enantioselective degradation) by Sprague Dawley rat liver microsomes. The format is in vitro ADME. The settings on record: RLM-SD, racemate, 37 °C, 0–120 min. As to the method:
as §2, §3, §4, §5

A short description of data set [6]: de-methylation by liver microsomes, statements pooled over all microsome sources. In kind it is in vitro ADME, human and rat. The settings on record: through all the incubations with the various microsomes. As to the method:
as §2, with “The samples were eventually evaporated till dry under a gentle stream of nitrogen.” left out, “These degradation studies were done in duplicates.” left out
The chiral separation method was based on methodology of Begnall et al.[62]. […] QTOF mass spectrometer equipped with an electrospray ionization source (Agilent G3251A Dual ESI) was used for chiral drug identification and quantification. […]
as §5

Details of data set [7]: method as in PMID 24027055. Conditions: male Sprague–Dawley rat liver microsomes; cited from earlier work.
Details of data set [8]: method as in PMID 25820472. Conditions: rat liver microsomes; cited from earlier work.
For data set [9] the following is noted: hepatic microsomes; cited from earlier work.
Data set [10] can be described thus: stereoselective degradation of metalaxyl in hepatic microsomes (Zhang et al.). Conditions: calculated from concentration-time data of Fig. 3a in ref 22; R^2 = 0.98. The format is in vitro ADME, rat and rabbit. As to the method: as §1
The conditions of data set [11]: loach liver microsomes; cited from earlier work.
Data set [12] is described as follows: in vivo stereoselective metabolism of doxazosin, plasma concentration-time profiles (Kong et al.). The settings on record: male Sprague–Dawley rats, from Fig. 3 in ref 25, R^2 = 0.92. An excerpt: (§6) For example, Sun et al.[26] have reviewed the enantioselective behavior of the fungicide myclobutanil enantiomers in variant rabbit tissues following intravenous administration of the racemic fungicide. Using the plasma concentration-time curves of the two enantiomers (presented in Fig. 1A in ref. [26]) we obtained the enantiomeric enrichment factor of −28 ± 5 (R^2 = 0.97). Analysis of the distribution of myclobutanil in various tissues, presented in Fig. 3 in ref. [26], obtained the enantiomeric enrichment factors of −33 ± 16 (R^2 = 0.92) for the liver, −20 ± 6 (R^2 = 0.97) for the brain, −32 ± 16 (R^2 = 0.89) for the kidney and −21 ± 6 (R^2 = 0.97) for the muscle. […] This quantitative ranking is obscured by the large number of time trace data points in the original presentation. Another example can be presented by the study of Kong et al.[25] reporting on the stereoselective metabolism of the alpha blocker doxazosin (DOX) in vivo in male Sprague–Dawley rats.

Data set [13] in a line: enantioselective metabolism of diclofop-methyl in fish liver microsomes (Ma et al.). The format is in vitro ADME, loach (Misgurnus anguillicaudatus). The settings on record: reconstructed from data of Fig. 3A in ref 50; R^2 = 0.94. As to the method: as §1
Data set [14] can be described thus: metabolism of hexaconazole in male Sprague–Dawley rat liver microsomes (Shen et al.). In kind it is in vitro ADME. The settings on record: reconstructed from data of Fig. 3A in ref 20; R^2 = 0.99. As to the method: as §1
A short description of data set [15]: enantioselective metabolism in rat hepatocytes (reported studies). In kind it is in vitro ADME. As to the method: as §1
Wang et al.[24] studied the enantioselective metabolism of the fungicide hexaconazole as well, they used male Sprague–Dawley rat hepatocytes. […] In a second test case, Wang et al.[52] studied the degradation of the fungicide myclobutanil in hepatocytes from male Sprague–Dawley rats.

Data set [16] can be described thus: in vivo enantioselective behaviour in rabbit plasma and tissues after intravenous racemate (Sun et al.).
Description: as §6

Where two headings read alike, the source gives them in different places.

In the case of `CC(C)(C)[C@@H](O)[C@@H](Cc1ccc(Cl)cc1)n1cncn1` (racemic) [(2RS, 3RS)-paclobutrazol], in data set [1], the enantiomeric enrichment factor is −66 ± 14%.
Regarding `COc1ccc(C(CN(C)C)C2(O)CCCCC2)cc1` (racemic) [VNF, (R,S)-venlafaxine], the “Overall first order kinetic constant, kc” value is 0.05 min⁻¹ in data set [2], 0.01 min⁻¹ in data set [3], 0.009 min⁻¹ in [4] and 0.03 min⁻¹ in [5]. The “enantiomeric ratio, ER” value in [6] worked out at 1.1 ± 0.08.
With `CCCCC(O)(Cn1cncn1)c1ccc(Cl)cc1Cl` (single isomer, unassigned; (+)) [(+)-hexaconazole], the “individual first order degradation rate constant” value in data set [7] is 0.09324 min⁻¹.
Regarding `CCCCC(O)(Cn1cncn1)c1ccc(Cl)cc1Cl` (single isomer, unassigned; (-)) [(−)-hexaconazole], the “individual first order degradation rate constant” value in [7] is 0.06804 min⁻¹.
In the case of `CC(C)(C)[C@@H](O)[C@@H](Cc1ccc(Cl)cc1)n1cncn1` [(2R, 3R)-paclobutraz], the “individual first order degradation rate constant” value in data set [8] was 0.0373 min⁻¹.
For the compound `CC(C)(C)[C@H](O)[C@H](Cc1ccc(Cl)cc1)n1cncn1` [(2S, 3S)-paclobutrazol], the “individual first order degradation rate constant” value in data set [8] was 0.0634 min⁻¹.
`COCC(=O)N(c1c(C)cccc1C)[C@@H](C)C(=O)OC` [(+)-S-MX]: the half-life (as a rule, the time in which the quantity being followed falls by half) in data set [9] is given as 7.71 min. For the same compound, the individual degradation constant in data set [10] is 0.0864 min⁻¹.
`COC(=O)[C@@H](C)Oc1ccc(Oc2ccc(Cl)cc2Cl)cc1` [(R)-DM]: the “individual first order degradation rate constant” value in data set [11] is 0.0346 min⁻¹.
As to `COC(=O)[C@H](C)Oc1ccc(Oc2ccc(Cl)cc2Cl)cc1` [(S)-DM], in [11], the “individual first order degradation rate constant” value is 0.1904 min⁻¹.
Turning to `COCC(=O)N(c1c(C)cccc1C)[C@H](C)C(=O)OC` [(−)-R-MX], the half-life in [9] was 15.58 min. Further, the individual degradation constant in data set [10] was 0.0415 min⁻¹.
For `COc1cc2nc(N3CCN(C(=O)C4COc5ccccc5O4)CC3)nc(N)c2cc1OC` (stereo not drawn) [DOX, doxazosin], in data set [12], the enantiomeric enrichment factor is −45 ± 13.
For `COC(=O)C(C)Oc1ccc(Oc2ccc(Cl)cc2Cl)cc1` (stereo not drawn) [diclofop-methyl], the enantiomeric enrichment factor in data set [13] is on record as −142 ± 40%.
Consider `CCCCC(O)(Cn1cncn1)c1ccc(Cl)cc1Cl` (stereo not drawn) [hexaconazole], for which the enantiomeric enrichment factor in data set [14] is reported as −37 ± 2%; in data set [15] (hexaconazole, reconstructed from Fig. 3a in ref 24, R^2 = 0.99), −184 ± 6%.
`CCCCC(C#N)(Cn1cncn1)c1ccc(Cl)cc1` (stereo not drawn) [myclobutanil]: the enantiomeric enrichment factor in data set [15] (myclobutanil, reconstructed from Fig. 3a in ref 52, R^2 = 0.97) is on record as −24 ± 2%; in [16] (rabbit brain, from Fig. 3 in ref 26, R^2 = 0.97) it was −20 ± 6; in data set [16] (rabbit kidney, from Fig. 3 in ref 26, R^2 = 0.89) it was −32 ± 16; in data set [16] (rabbit liver, from Fig. 3 in ref 26, R^2 = 0.92), −33 ± 16; in data set [16] (rabbit muscle, from Fig. 3 in ref 26, R^2 = 0.97) it was −21 ± 6; in data set [16] (rabbit plasma, intravenous racemate, from Fig. 1A in ref 26, R^2 = 0.97), −28 ± 5. Besides, the “decay kinetics / adherence to the Rayleigh law” value in data set [16] (rabbits' hearts and fats, data of ref 26) is given as “does not follow linear kinetics”.

These data come from PMC4810358, “Applicability of the Rayleigh equation for enantioselective metabolism of chiral xenobiotics by microsomes, hepatocytes and in-vivo retention in rabbit tissues” (Scientific Reports, 2016).
